One experiment deals with T1, PP-2A (Rattus norvegicus, UniProt P63331).
T1 construct: the supernatant was used to assay activities of PP-2A and PP-1; from tissue; host or cells: organotypic culture of adult rat hippocampal slices; 16,000xg extract
The note with it: up to 5 μM OA, 3 h; cited from earlier work.

The subject of the next experiment is MAPK. In words: MAPK activity in extracts of treated hippocampal slice cultures. The format is cell-based, rat. The note with it: after 0.3 mM glutamate; 10 μM Memantine or 15 μM MK801. The procedure:
The rats were anesthetized with ketamine (100 mg/kg body weight) and decapitated and the hippocampi were dissected out and sliced into 400 um coronal sections by a McIllwain tissue chopper. Select slices with uninterrupted bright transparent neuronal layers were plated, 1-3 slices/filter, onto Millicell CM filters (Millipore, Bedford, Mass.). […] After 7 DIV, the cultures were maintained in physiological potassium containing 5% horse serum medium at 35° C. for at least 20 days before any treatment was applied. When the slices were treated, the reagents were applied into the culture medium. At different time points, the slices collected with a brush were washed twice in homogenizing buffer (50 mM HEPES, pH 7.0, 10 mM β-merceptoethanol [BME], 1 mM EDTA, 1 mM EGTA, 0.1 mM phenylmethyl sulfonyl fluoride [PMSF], 2.0 mM benzamidine and 2.0 μg/ml each of aprotinin, leupeptin and pepstatin) and homogenized at 4° C. using a Teflon-glass homogenizer. The homogenate was then divided into two parts, one was centrifuged at 16000×g for 15 min and the supernatant was used to assay activities of PP-2A and PP-1. The rest of the homogenate was diluted 1:1 with a phosphatase inhibitor cocktail (20 mM β-glycerophosphate, 2 mM Na3VO4 and 100 mM NaF, pH 7.0) and either used for Western blots or centrifuged at 16000×g for 15 min and the resulting supernatant used to determine the kinase activities.
Immobilized protein G (Pierce, Rockford, Ill.), 20 μl, was mixed in 50 mM Tris, pH 7.4, 150 mM NACl, 10 mM NaF, 1.0 mM Na3VO4, 2.0 mM EGTA, 1 mM PMSF, 5 μg/ml leupeptin, 5 μg/ml aprotinin, 2 μg/ml pepstatin, 25 μg/ml phosphoramidon. After incubation at 4° C. overnight, the mixture was centrifuged and the beads were washed three times. The beads were then resuspended in 50 mM Tris, pH 7.4, containing 10 mM MgCl2. MAPK substrate peptide (UBI, Lake Placid, N.Y.) was employed for the MAPK assay. […]

T1 sequence (P63331 whole entry): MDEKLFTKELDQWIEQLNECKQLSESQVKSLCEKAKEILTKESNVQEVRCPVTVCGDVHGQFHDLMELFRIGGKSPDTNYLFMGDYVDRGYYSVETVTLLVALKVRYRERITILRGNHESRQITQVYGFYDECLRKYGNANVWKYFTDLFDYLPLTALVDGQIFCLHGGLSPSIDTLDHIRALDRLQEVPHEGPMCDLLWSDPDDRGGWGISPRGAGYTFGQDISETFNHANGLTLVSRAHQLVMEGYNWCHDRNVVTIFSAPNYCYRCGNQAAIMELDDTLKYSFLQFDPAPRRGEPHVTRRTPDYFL

Regarding `C=C1[C@@H](O)[C@@H]2O[C@]3(CC[C@H](/C=C/[C@@H](C)[C@@H]4CC(C)=C[C@@]5(O[C@H](C[C@@](C)(O)C(=O)O)CC[C@H]5O)O4)O3)CC[C@H]2O[C@@H]1[C@@H](O)C[C@H](C)[C@H]1O[C@@]2(CCCCO2)CC[C@H]1C` [OA, Okadaic Acid], the “maximal inhibition of PP-2A” value at PP-2A is given as around 70%. On to `CC12CC3CC(C)(C1)CC(N)(C3)C2` [Memantine, 1-amino-3,5-dimethyl adamantane], for which, in the experiment on MAPK, the “effect on MAP kinase activity” value was “no effect”.

Values taken from patent US20040019118A1, “NMDA receptor antagonists and their use in inhibiting abnormal hyperphosphorylation of microtubule associated protein tau” (priority 2002, published 2004).
